The target in test [1] is T1, Retinoic acid receptor RXR-alpha (Homo sapiens) (UniProt P19793).
T1 sequence (whole entry): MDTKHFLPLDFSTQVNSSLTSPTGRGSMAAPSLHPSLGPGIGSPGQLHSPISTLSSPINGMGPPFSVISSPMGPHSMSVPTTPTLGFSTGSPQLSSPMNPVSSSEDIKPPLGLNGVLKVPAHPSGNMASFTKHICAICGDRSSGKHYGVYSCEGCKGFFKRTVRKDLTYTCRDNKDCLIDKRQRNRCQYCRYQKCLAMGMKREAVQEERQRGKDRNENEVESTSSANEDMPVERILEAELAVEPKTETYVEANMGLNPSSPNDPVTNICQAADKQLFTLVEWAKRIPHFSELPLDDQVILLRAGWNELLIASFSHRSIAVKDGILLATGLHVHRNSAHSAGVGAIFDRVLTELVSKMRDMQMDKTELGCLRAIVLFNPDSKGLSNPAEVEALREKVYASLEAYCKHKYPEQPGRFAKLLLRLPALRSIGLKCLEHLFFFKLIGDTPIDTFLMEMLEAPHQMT
The test can be described thus: Agonist activity at recombinant human pFA-CMV fused RXRalpha LBD expressed in HEK293T cells transfected with pFR-luciferase plasmid and pRL-SV40 plasmid at 10 uM incubated for 14 to 16 hrs by dual glo luciferase reporter gene assay. Format: cell-based. The note with it: HEK-293T.

In test [2] the target is T2, Retinoic acid receptor RXR-gamma (Homo sapiens) (UniProt P48443).
T2 sequence (whole entry): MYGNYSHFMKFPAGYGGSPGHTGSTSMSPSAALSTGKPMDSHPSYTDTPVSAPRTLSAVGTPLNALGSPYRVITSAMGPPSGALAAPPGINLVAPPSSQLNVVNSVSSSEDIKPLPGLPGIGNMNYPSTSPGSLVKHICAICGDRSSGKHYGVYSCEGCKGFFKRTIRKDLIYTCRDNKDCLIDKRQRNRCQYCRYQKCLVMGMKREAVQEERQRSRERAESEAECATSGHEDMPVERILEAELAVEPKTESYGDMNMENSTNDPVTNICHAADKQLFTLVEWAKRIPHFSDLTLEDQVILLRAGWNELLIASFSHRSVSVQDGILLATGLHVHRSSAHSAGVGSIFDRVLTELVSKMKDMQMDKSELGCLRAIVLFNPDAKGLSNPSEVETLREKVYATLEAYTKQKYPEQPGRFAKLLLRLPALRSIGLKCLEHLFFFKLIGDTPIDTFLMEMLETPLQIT
In words: Agonist activity at recombinant human pFA-CMV fused RXRgamma LBD expressed in HEK293T cells transfected with pFR-luciferase plasmid and pRL-SV40 plasmid at 10 uM incubated for 14 to 16 hrs by dual glo luciferase reporter gene assay. Type of test: cell-based. The note with it: HEK-293T.

Test [3] concerns the target T3, Retinoic acid receptor RXR-alpha (Homo sapiens, UniProt P19793).
T3 sequence (P19793 whole entry): T1 sequence (whole entry)
In words: Binding affinity to RXRalpha LBD (unknown origin) by isothermal titration calorimetry. (In general: Isothermal titration calorimetry measures the heat released or taken up as one component is titrated into another.)

The target in test [4] is T4, Peroxisome proliferator-activated receptor gamma (Homo sapiens, UniProt P37231).
T4 sequence (P37231 whole entry): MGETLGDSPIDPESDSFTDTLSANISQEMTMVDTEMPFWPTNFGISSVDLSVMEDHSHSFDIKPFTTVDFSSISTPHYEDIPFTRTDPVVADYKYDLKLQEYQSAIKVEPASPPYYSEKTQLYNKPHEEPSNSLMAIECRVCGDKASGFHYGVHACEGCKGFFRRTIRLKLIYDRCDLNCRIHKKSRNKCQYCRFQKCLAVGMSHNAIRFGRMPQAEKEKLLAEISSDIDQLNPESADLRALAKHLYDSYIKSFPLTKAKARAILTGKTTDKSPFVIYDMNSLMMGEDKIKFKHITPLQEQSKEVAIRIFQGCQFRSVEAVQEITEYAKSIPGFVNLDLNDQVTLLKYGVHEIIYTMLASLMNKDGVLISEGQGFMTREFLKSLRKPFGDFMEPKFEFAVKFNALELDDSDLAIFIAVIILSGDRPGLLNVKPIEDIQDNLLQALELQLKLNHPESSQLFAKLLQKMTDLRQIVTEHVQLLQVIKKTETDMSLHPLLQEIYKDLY
The test can be described thus: Binding affinity to recombinant PPARgamma LBD (unknown origin) by isothermal titration calorimetry.

In test [5] the target is T4, Peroxisome proliferator-activated receptor gamma. In words: Agonist activity at recombinant human pFA-CMV fused PPARgamma expressed in HEK293T cells transfected with pFR-luciferase plasmid and pRL-SV40 plasmid incubated for 14 to 16 hrs by dual glo luciferase reporter gene assay. Type of test: cell-based, HEK-293T.
The target of test [6] is T1, Retinoic acid receptor RXR-alpha (Homo sapiens). The test can be described thus: Agonist activity at recombinant human pFA-CMV fused RXRalpha LBD expressed in HEK293T cells transfected with pFR-luciferase plasmid and pRL-SV40 plasmid incubated for 14 to 16 hrs by dual glo luciferase reporter gene assay relative to control. Format: cell-based. The following applies: HEK-293T. (In general: Reporter assays use an easily measured gene product as a stand-in for the process of interest.)

In test [7] the target is T5, Peroxisome proliferator-activated receptor gamma (Homo sapiens) (UniProt P37231).
T5 sequence (whole entry): T4 sequence (P37231 whole entry)
The test can be described thus: Agonist activity at PPARgamma in human HepG2 cells without THRA knockdown assessed as induction of CD36 expression at 30 uM incubated for 8 hrs in by Western blot analysis. Type of test: cell-based. On the technique in general: In western blotting, separated proteins are transferred to a membrane and probed.

Test [8] addresses T5, Peroxisome proliferator-activated receptor gamma (Homo sapiens). The test can be described thus: Agonist activity at PPARgamma in human HepG2 cells with THRA knockdown assessed as induction of CD36 mRNA expression incubated for 8 hrs by qPCR analysis. Type of test: cell-based.
Test [9] addresses T3, Retinoic acid receptor RXR-alpha. In words: Agonist activity at recombinant human pFA-CMV fused RXRalpha LBD expressed in HEK293T cells transfected with pFR-luciferase plasmid and pRL-SV40 plasmid incubated for 14 to 16 hrs by dual glo luciferase reporter gene assay. Format: cell-based, HEK-293T. The following applies: read-out: EC50.
The target in test [10] is T5, Peroxisome proliferator-activated receptor gamma (Homo sapiens). In words: Agonist activity at PPARgamma in human HepG2 cells with THRB knockdown assessed as induction of CD36 mRNA expression incubated for 8 hrs by qPCR analysis. Type of test: cell-based.
The target in test [11] is T6, Retinoic acid receptor RXR-beta (Homo sapiens) (UniProt P28702).
T6 sequence (whole entry): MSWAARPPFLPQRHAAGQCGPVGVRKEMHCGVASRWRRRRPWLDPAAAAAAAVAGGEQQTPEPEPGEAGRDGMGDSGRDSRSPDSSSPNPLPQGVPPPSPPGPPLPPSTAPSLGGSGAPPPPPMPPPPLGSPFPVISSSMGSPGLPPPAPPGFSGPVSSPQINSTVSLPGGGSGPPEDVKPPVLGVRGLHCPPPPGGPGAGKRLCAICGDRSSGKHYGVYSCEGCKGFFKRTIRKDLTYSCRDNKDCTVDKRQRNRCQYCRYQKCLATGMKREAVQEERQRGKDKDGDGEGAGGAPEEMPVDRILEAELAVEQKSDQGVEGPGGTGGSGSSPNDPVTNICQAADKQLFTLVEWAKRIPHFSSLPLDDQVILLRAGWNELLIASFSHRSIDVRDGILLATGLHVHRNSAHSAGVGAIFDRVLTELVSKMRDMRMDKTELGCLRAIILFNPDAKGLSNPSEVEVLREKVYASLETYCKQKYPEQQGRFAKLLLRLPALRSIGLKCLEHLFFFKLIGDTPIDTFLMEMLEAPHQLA
In words: Agonist activity at recombinant human pFA-CMV fused RXRbeta LBD expressed in HEK293T cells transfected with pFR-luciferase plasmid and pRL-SV40 plasmid at 10 uM incubated for 14 to 16 hrs by dual glo luciferase reporter gene assay. Format: cell-based. The note with it: HEK-293T.

Test [12] has as its target T3, Retinoic acid receptor RXR-alpha. In words: Agonist activity at GFP RXRalpha LBD (unknown origin) assessed as biotin-labeled SRC-1 recruitment incubated for 2 hrs by HT-FRET assay.

The source made the active and inactive calls. The calls are words filed in the database; no cut-off is given here.

As for `N[C@@H](Cc1cc(I)c(Oc2cc(I)c(O)c(I)c2)c(I)c1)C(=O)O` [LEVOTHYROXINE], the outcome in test [1], in test [2], in [7] and in [11] was Active. For the same compound, the Kd in [3] was determined as 930 nM; in [4], 400 nM. Further, the values for the EC50 in [5] and in test [9] were 12000 nM and 15400 nM, respectively. In addition, the fold change (FC) in test [6] was determined as 7.4. Moreover, the Activity entry in test [8] and in [10] was “Dose-dependent effect” in each case.

With `O=C(O)Cc1cc(I)c(Oc2cc(I)c(O)c(I)c2)c(I)c1` [TETRAC], the result in test [1], in [2] and in [11] was Active. Further, the Kd in test [3] was found to be 1500 nM; in test [4], 110 nM. In addition, the values for the EC50 in test [12], in test [5] and in [9] were 4600 nM, 100 nM and 1320 nM, respectively. The fold change (FC) in test [6] amounted to 9.1. The Activity entry in [8] and in test [10] was “Dose-dependent effect” each time.

What is called Kd is a measure of binding affinity in units of concentration. By EC50 is commonly meant the concentration that produces a half-maximal response.
